Laboratory results as given in ChEMBL document CHEMBL3885881, “DrugMatrix”.

Species on record: Rattus norvegicus
Test: DrugMatrix - Regimen: Daily Repeat
Format: toxicity, organism-based, Sprague-Dawley
Design: regimen Daily Repeat, gender Male, age 6-8 weeks
Details: in vivo, po, route oral GAVAGE, vehicle 100 % WATER; for ABSOLUTE BASOPHIL / ABSOLUTE EOSINOPHIL / ABSOLUTE LYMPHOCYTE / ABSOLUTE MONOCYTE / ABSOLUTE SEGMENTED NEUTROPHIL / BASOPHIL / EOSINOPHIL / ERYTHROCYTE COUNT / HEMATOCRIT / HEMOGLOBIN / LEUKOCYTE COUNT / LYMPHOCYTE / MEAN CORPUSCULAR HEMOGLOBIN / MEAN CORPUSCULAR HEMOGLOBIN CONCENTRATION / MEAN CORPUSCULAR VOLUME / MONOCYTE / NEUTROPHIL / NUCLEATED RED BLOOD CELLS / PLATELET COUNT: tissue Blood; for ALANINE AMINOTRANSFERASE / ALBUMIN / ALKALINE PHOSPHATASE / ASPARTATE AMINOTRANSFERASE / BLOOD UREA NITROGEN / CARBON DIOXIDE / CHLORIDE / CHOLESTEROL / CREATINE PHOSPHOKINASE / CREATININE / GLUCOSE / LACTATE DEHYDROGENASE / LIPASE / PHOSPHORUS / POTASSIUM / SODIUM / TOTAL BILIRUBIN / TOTAL PROTEIN / URIC ACID: tissue Plasma
[1] = 0 mg/kg, 72 h, dose level Control, time 3 day
[2] = 0 mg/kg, 120 h, dose level Control, time 5 day
[3] = 300 mg/kg, 72 h, dose level Low, time 3 day

CC(Cl)(Cl)Cl [TRICHLOROETHANE]
ABSOLUTE BASOPHIL [1]: 0 CELLS/uL
ABSOLUTE EOSINOPHIL [1]: 86.33 CELLS/uL
ABSOLUTE LYMPHOCYTE [1]: 12090.17 CELLS/uL
ABSOLUTE MONOCYTE [1]: 166.67 CELLS/uL
ABSOLUTE SEGMENTED NEUTROPHIL [1]: 1090.17 CELLS/uL
BASOPHIL [1]: 0%
EOSINOPHIL [1]: 0.67%
ERYTHROCYTE COUNT [1]: 5.57 x10E6/uL
HEMATOCRIT [1]: 35.33%
HEMOGLOBIN [1]: 13.83 G/DL
LEUKOCYTE COUNT [1]: 13.43 x10E3/uL
LYMPHOCYTE [1]: 89.83%
MEAN CORPUSCULAR HEMOGLOBIN [1]: 24.88 pg
MEAN CORPUSCULAR HEMOGLOBIN CONCENTRATION [1]: 39.15 G/DL
MEAN CORPUSCULAR VOLUME [1]: 63.52 fL
MONOCYTE [1]: 1.17%
NEUTROPHIL [1]: 8.33%
NUCLEATED RED BLOOD CELLS [1]: 0 /100WBC
PLATELET COUNT [1]: 1181.33 x10E3/uL
ALANINE AMINOTRANSFERASE [1]: 48.33 u/L
ALBUMIN [1]: 4.1 G/DL
ALKALINE PHOSPHATASE [1]: 395 u/L
ASPARTATE AMINOTRANSFERASE [1]: 81.83 u/L
BLOOD UREA NITROGEN [1]: 15.83 mg/dL
CARBON DIOXIDE [1]: 24.17 mmol/L
CHLORIDE [1]: 103.83 MEQ/L
CHOLESTEROL [1]: 63.67 mg/dL
CREATINE PHOSPHOKINASE [1]: 372.83 u/L
CREATININE [1]: 0.18 mg/dL
GLUCOSE [1]: 173.83 mg/dL
LACTATE DEHYDROGENASE [1]: 188.33 u/L
LIPASE [1]: 9.5 u/L
PHOSPHORUS [1]: 11.95 mg/dL
POTASSIUM [1]: 5.99 MEQ/L
SODIUM [1]: 144.43 MEQ/L
TOTAL BILIRUBIN [1]: 0.15 mg/dL
TOTAL PROTEIN [1]: 5.95 G/DL
URIC ACID [1]: 1.82 mg/dL
ABSOLUTE BASOPHIL [2]: 0 CELLS/uL
ABSOLUTE EOSINOPHIL [2]: 26.67 CELLS/uL
ABSOLUTE LYMPHOCYTE [2]: 7583.83 CELLS/uL
ABSOLUTE MONOCYTE [2]: 131.33 CELLS/uL
ABSOLUTE SEGMENTED NEUTROPHIL [2]: 674.83 CELLS/uL
BASOPHIL [2]: 0%
EOSINOPHIL [2]: 0.33%
ERYTHROCYTE COUNT [2]: 5.78 x10E6/uL
HEMATOCRIT [2]: 36.48%
HEMOGLOBIN [2]: 14.03 G/DL
LEUKOCYTE COUNT [2]: 8.42 x10E3/uL
LYMPHOCYTE [2]: 89.83%
MEAN CORPUSCULAR HEMOGLOBIN [2]: 24.3 pg
MEAN CORPUSCULAR HEMOGLOBIN CONCENTRATION [2]: 38.52 G/DL
MEAN CORPUSCULAR VOLUME [2]: 63.15 fL
MONOCYTE [2]: 1.67%
NEUTROPHIL [2]: 8.17%
NUCLEATED RED BLOOD CELLS [2]: 0 /100WBC
PLATELET COUNT [2]: 1186.67 x10E3/uL
ALANINE AMINOTRANSFERASE [2]: 50.17 u/L
ALBUMIN [2]: 4.07 G/DL
ALKALINE PHOSPHATASE [2]: 367.5 u/L
ASPARTATE AMINOTRANSFERASE [2]: 81.67 u/L
BLOOD UREA NITROGEN [2]: 16.17 mg/dL
CARBON DIOXIDE [2]: 32.33 mmol/L
CHLORIDE [2]: 101.5 MEQ/L
CHOLESTEROL [2]: 65.33 mg/dL
CREATINE PHOSPHOKINASE [2]: 255.33 u/L
CREATININE [2]: 0.17 mg/dL
GLUCOSE [2]: 139.33 mg/dL
LACTATE DEHYDROGENASE [2]: 95 u/L
LIPASE [2]: 10.5 u/L
PHOSPHORUS [2]: 10.38 mg/dL
POTASSIUM [2]: 6.11 MEQ/L
SODIUM [2]: 145.55 MEQ/L
TOTAL BILIRUBIN [2]: 0.17 mg/dL
TOTAL PROTEIN [2]: 5.98 G/DL
URIC ACID [2]: 0.93 mg/dL
ABSOLUTE BASOPHIL [3]: 0 CELLS/uL
ABSOLUTE EOSINOPHIL [3]: 37 CELLS/uL
ABSOLUTE LYMPHOCYTE [3]: 13276 CELLS/uL
ABSOLUTE MONOCYTE [3]: 236.33 CELLS/uL
ABSOLUTE SEGMENTED NEUTROPHIL [3]: 1084 CELLS/uL
BASOPHIL [3]: 0%
EOSINOPHIL [3]: 0.33%
ERYTHROCYTE COUNT [3]: 5.75 x10E6/uL
HEMATOCRIT [3]: 37.23%
HEMOGLOBIN [3]: 14.1 G/DL
LEUKOCYTE COUNT [3]: 14.63 x10E3/uL
LYMPHOCYTE [3]: 90.67%
MEAN CORPUSCULAR HEMOGLOBIN [3]: 24.53 pg
MEAN CORPUSCULAR HEMOGLOBIN CONCENTRATION [3]: 37.87 G/DL
MEAN CORPUSCULAR VOLUME [3]: 64.8 fL
MONOCYTE [3]: 1.67%
NEUTROPHIL [3]: 7.33%
NUCLEATED RED BLOOD CELLS [3]: 0 /100WBC
PLATELET COUNT [3]: 1274 x10E3/uL
ALANINE AMINOTRANSFERASE [3]: 52 u/L
ALBUMIN [3]: 4 G/DL
ALKALINE PHOSPHATASE [3]: 352.67 u/L
ASPARTATE AMINOTRANSFERASE [3]: 88.67 u/L
BLOOD UREA NITROGEN [3]: 16 mg/dL
CARBON DIOXIDE [3]: 24.67 mmol/L
CHLORIDE [3]: 102.33 MEQ/L
CHOLESTEROL [3]: 72 mg/dL
CREATINE PHOSPHOKINASE [3]: 1076 u/L
CREATININE [3]: 0.13 mg/dL
GLUCOSE [3]: 161 mg/dL
LACTATE DEHYDROGENASE [3]: 188.67 u/L
LIPASE [3]: 9 u/L
PHOSPHORUS [3]: 13.77 mg/dL
POTASSIUM [3]: 6.88 MEQ/L
SODIUM [3]: 144.3 MEQ/L
TOTAL BILIRUBIN [3]: 0.2 mg/dL
TOTAL PROTEIN [3]: 5.83 G/DL
URIC ACID [3]: 1.93 mg/dL
